Results taken from patent publication US7544687B2, “Substituted α-piperazinyl phenylpropionic acid derivatives as hPPAR α and/or hPPAR γ agonists” (Beijing Molecule Science and Technology Co., Ltd, priority 2004, dated 2009).

Legend:
Human PPARα = molecular target: T1, Human PPARα (Homo sapiens, UniProt Q07869); experiment: Activation of human PPARα, GAL4 chimeric receptor luciferase reporter assay in transiently transfected 293-T cells; type: cell-based; details: for Photon number (×10^4) / Increased multiple vs control: compounds 10 μM, PPARα; for Photon number (×10^4): luciferase 24 h after administration; for Increased multiple vs control: vs DMSO control
T1 construct: expressed in transfected cells; host or cells: 293-T cells, transient transfection
T1 sequence (Q07869 239-466 limits assumed): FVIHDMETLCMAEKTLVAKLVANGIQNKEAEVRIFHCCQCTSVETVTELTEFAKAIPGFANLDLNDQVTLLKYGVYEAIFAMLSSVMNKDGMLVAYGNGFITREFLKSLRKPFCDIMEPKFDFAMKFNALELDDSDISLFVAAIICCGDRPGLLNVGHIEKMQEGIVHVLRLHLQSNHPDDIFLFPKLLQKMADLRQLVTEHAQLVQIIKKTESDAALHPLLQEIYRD
Description: (§1) The compounds were screened with respect to their functional effect of instantaneous transfection in 293-T cells, so that their capabilities of activating PPAR subtypes were determined. A chimeric receptor system as established in advance was used to compare the influence of receptor subtypes on the transcription activity of same target gene. Human PPARα and PPARγ ligand-binding domains were fused respectively with yeast transcription factor GAL4 DNA-binding domains, and then linked to expression vector pM of mammal, to thereby construct two plasmids pM-hPPARα/GAL4 and pM-PPARγ/GAL4. GAL4 DNA-binding area was linked to pB4-tk-luc, to thereby construct pB4-RES-tk-luc (a firefly luciferase reporter gene comprising GAL4 DNA-binding site). pRL-CMV-Rluc was used as an internal control to normalize transfection efficiency and endogenous influence.
293-T cells were incubated in a 48-well plate at a cell density of 2-4×10^4/well, using a phenol red-free and antibiotic-free 1640 medium containing 10% defatted fetal calf serum (FCS). After culturing for 48 h, the medium was replaced with a phenol red-free and antibiotic-free 1640 medium containing 5% defatted FCS, and then three plasmids pM-hPPAR/GAL4, pB4-RES-tk-luc and pRL-CMV-Rluc pertaining to two subtypes were respectively co-transfected into the 293-T cells. The strength of luciferase was measured at the time of 24 h after administration, with 0.2% DMSO as a blank control.

Human PPARγ = molecular target: T2, Human PPARγ (Homo sapiens, UniProt P37231); experiment: Activation of human PPARγ, GAL4 chimeric receptor luciferase reporter assay in transiently transfected 293-T cells; type: cell-based
T2 construct: expressed in transfected cells; host or cells: 293-T cells, transient transfection
T2 sequence (P37231 238-503 limits assumed): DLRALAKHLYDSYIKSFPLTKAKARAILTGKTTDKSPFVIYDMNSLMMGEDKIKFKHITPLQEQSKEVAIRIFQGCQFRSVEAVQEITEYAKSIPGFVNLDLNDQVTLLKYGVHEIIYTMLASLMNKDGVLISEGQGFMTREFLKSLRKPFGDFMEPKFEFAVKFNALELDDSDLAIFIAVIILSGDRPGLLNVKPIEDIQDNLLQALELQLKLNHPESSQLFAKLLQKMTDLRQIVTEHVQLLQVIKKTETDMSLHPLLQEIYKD
Description: as §1, with “A” for “The compounds were screened with respect to their functional effect of instantaneous transfection in 293-T cells, so that their capabilities of activating PPAR subtypes were determined. A”
The strength of luciferase was measured at the time of 24 h after administration, with 0.2% DMSO as a blank control.

| SMILES | Photon number (×10^4) (Human PPARα) | Increased multiple vs control (Human PPARα) | melting point | further results |
| --- | --- | --- | --- | --- |
| Cc1cccc(N2CCN([C@@H](Cc3ccc(OCCc4nc(-c5ccccc5)oc4C)cc3)C(=O)O)CC2)c1 [Example 1, (2S)-3-{4-[2-(5-methyl-2-phenyl-1,3-oxazol-4-yl)-ethoxy]-phenyl}-2-(4-m-tolyl-piperazin-1-yl)-propionic acid] | 11.3 ×10^4 | 5.3 |  |  |
| Cc1oc(-c2ccccc2)nc1CCOc1ccc(C[C@@H](C(=O)O)N2CCN(S(=O)(=O)c3ccccc3F)CC2)cc1 [Example 3, (2S)-2-[4-(2-fluoro-benzenesulfonyl)-piperazin-1-yl]-3-{4-[2-(5-methyl-2-phenyl-1,3-oxazol-4-yl)-ethoxy]-phenyl}-propionic acid] |  |  | 170 to 172 °C |  |
| Cc1oc(-c2ccccc2)nc1CCOc1ccc(C[C@@H](C(=O)O)N2CCN(S(=O)(=O)c3ccc(F)cc3)CC2)cc1 [Example 4, (2S)-2-[4-(4-fluoro-benzenesulfonyl)-piperazin-1-yl]-3-{4-[2-(5-methyl-2-phenyl-1,3-oxazol-4-yl)-ethoxy]-phenyl}-propionic acid] | 6.8 ×10^4 | 3.2 | 198 to 200 °C | Photon number (×10^4) (Human PPARγ; compounds 10 μM, PPARγ, luciferase 24 h after administration): 2.8 ×10^4; Increased multiple vs control (Human PPARγ; compounds 10 μM, PPARγ, vs control): 2.0 |
| Cc1oc(-c2ccccc2)nc1CCOc1ccc(C[C@@H](C(=O)O)N2CCN(S(=O)(=O)c3ccccc3[N+](=O)[O-])CC2)cc1 [Example 6, (2S)-2-[4-(2-nitro-benzenesulfonyl)-piperazin-1-yl]-3-{4-[2-(5-methyl-2-phenyl-1,3-oxazol-4-yl)-ethoxy]-phenyl}-propionic acid] |  |  | 171 to 173 °C | EC50 (Human PPARα; activation of PPARα): 1.05 µM; EC50 (Human PPARγ; activation of PPARγ): 3.2 µM |
| Cc1oc(-c2ccccc2)nc1CCOc1ccc(C[C@@H](C(=O)O)N2CCN(c3cccc(Cl)c3)CC2)cc1 [Example 7, (2S)-2-[4-(m-chloro-phenyl)-piperazin-1-yl]-3-{4-[2-(5-methyl-2-phenyl-1,3-oxazol-4-yl)-ethoxy]-phenyl}-propionic acid] |  |  | 138 to 139 °C |  |
| Cc1oc(-c2ccccc2)nc1CCOc1ccc(C[C@@H](C(=O)O)N2CCN(c3ccccc3)CC2)cc1 [Example 8, (2S)-3-{4-[2-(5-methyl-2-phenyl-1,3-oxazol-4-yl)-ethoxy]-phenyl}-2-(4-phenyl-piperazin-1-yl)-propionic acid] | 13.2 ×10^4 | 6.3 | 218 to 220 °C |  |
| Cc1oc(-c2ccccc2)nc1CCOc1ccc(C[C@@H](C(=O)O)N2CCN(c3ccccc3)CC2)cc1Br [Example 10, (2S)-3-{3-bromo-4-[2-(5-methyl-2-phenyl-1,3-oxazol-4-yl)-ethoxy]-phenyl}-2-(4-phenylpiperazin-1-yl)-propanoic acid] |  |  | 220 to 222 °C |  |
